In patent US12173042B2, “Methods of treating cancers with CT45 targeted therapies” (The University of Chicago, priority 2016, dated 2024):

How the values were obtained:
Type in all cases: cell-based, human
[1] = tested on: KAP-1 Ser824 phosphorylation; assay: KAP-1 Ser824 phosphorylation (western blot, immunofluorescence); conditions: carboplatin 5 μM
Description: Cells were treated with indicated drugs for 3 days and then media was changed. On indicated day of collection, both adherent and non-adherent cells were collected in RIPA buffer (25 mM Tris-HCl pH 7.6, 150 mM NaCl, 1% NP-40, 0.5% sodium deoxycholate, 0.1% SDS) supplemented with protease inhibitor cocktail (Thermo Scientific) and phosphatase inhibitor cocktail (Sigma). Lysates were incubated for 30 min on ice, sonicated and cleared by centrifugation (15 min, 14 000 rpm, 4° C.). The quantity of protein was determined by BCA reagent (Pierce). The extracts were analyzed by SDS-PAGE on a 4-20% gradient gel (Bio-Rad).
Cells were treated with 0 or 5 μM carboplatin on glass chamber slides. After 72 hr, media was changed. At designated timepoints, slides were fixed for 10 min at room temperature with 4% paraformaldehyde, cells were washed and permeabilized with PBS/0.1% Triton-X for 15 min and then blocked for 1 hr in blocking buffer (PBS/0.1% Triton-X/0.05% BSA/0.05% goat serum). Cells were washed three times and then were then incubated with primary antibody overnight diluted in blocking buffer at 4° C. Following three washes, cells were incubated with secondary antibody (diluted in blocking buffer) for 1 hr at room temperature and then with Hoechst 33342 for 2 min. Slides were mounted with ProLong Gold Antifade. […] A minimum of 100 cells/sample were analyzed. […]

[2] = tested on: chromatin of OVCAR5-V5-CT45 and OVCAR5-V5 cells; assay: Micrococcal nuclease (MNase) assay; conditions: after five days, vector control and CT45 overexpressing cell line
Description: Chromatin relaxation was assayed using the micrococcal nuclease (MNase) assay as previously described, with a few modifications. Briefly, nuclei from 1E6 cells were extracted with 300 μl ice-cold lysis buffer (10 mM Tris-HCl (pH 7.5), 10 mM NaCl, 3 mM MgCl2 and 0.4% IGPAL-CA-630) on ice for 5 min. After centrifugation (2,000 g for 5 min at 4° C.), nuclei were washed two times in lysis buffer and one time in 500 μl digestion buffer (0.32M sucrose, 50 mM Tris-HCl (pH7.5), 4 mM MgCl2, 1 mM CaCl2). Nuclei were then digested in digestion buffer with 50 gel units MNase (NEB) for 9 min at 27° C. in a final volume of 100 μl. The reaction was stopped by adding a final concentration of 1% SDS and 15 mM EGTA. Genomic DNA was purified and separated by gel electrophoresis (1.2% agarose).

[3] = tested on: chromatin enrichment of KAP-1 or PP4; assay: Chromatin fractionation; conditions: OVCAR5-V5-CT45 cell line
Description: Chromatin fractionation was performed as described previously. Soluble proteins and proteins bound to open or compacted chromatin were separated by stepwise increasing the salt and nuclease (MNase) treatment. 1E7 cells were washed with PBS and 1 ml low salt buffer (LSB: 10 mM HEPES [pH 7.4], 25 mM KCl, 10 mM NaCl, 1 mM MgCl2, 0.1 mM EDTA). Pelleted cells were then resuspended in six times the packed cell volume (PCV) of LSB supplemented with protease and phosphatase inhibitor cocktail (Roche). After snap freezing in liquid nitrogen, samples were quickly thawed and immediately centrifuged (10 min at 10,000 rpm). The pellet was resuspended in a volume of high-salt buffer (HSB: 50 mM Tris-HCl [pH 8.0], 5% [v/v] glycerol, 1 mM EDTA, 10 mM MgCl2, 400 mM KCl, supplemented with protease and phosphatase inhibitor cocktail), equal to 0.25 V of LSB. After centrifugation at 10,000 rpm (supernatant=nucleoplasmic fraction), the pellet was resuspended in a volume nuclease buffer containing 10 U/ml MNase (NEB) and incubated at 37° C. for 10 min and centrifuged for 5 min at 10,000 rpm (supernatant=chromatin fraction 1). The pellet was then resuspended in the same volume of nuclease buffer containing 100 U/ml MNase and incubated another 45 min at 37° C. before an equal V of solubilization buffer (nuclease buffer+2% [v/v] NP-40, 2% [v/v] Triton X-100, 600 mM NaCl) was added. […]

N.N.O=C([O-])C1(C(=O)[O-])CCC1.[Pt+2] [carboplatin]
time of peak of phosphorylated KAP-1 ([1]; both cell lines): 3 days
phosphorylation of KAP-1 at Ser824 [1]: induced phosphorylation
chromatin relaxation [2]: induced global chromatin relaxation
chromatin enrichment of KAP-1 or PP4 [3]: did not find
